Where “and” joins values, the source holds several entries; their conditions need not be identical. Equal values may be shown once. Read-outs that look alike come from different tables or passages of the source.
Tests used:
Aβ25–35 = biological target: T1, Aβ25–35 (Homo sapiens, UniProt P05067); assay: Self Aβ25–35 aggregation assay (thioflavin-T fluorescence); type: biochemical; conditions: for decrease of Aβ25–35 self-aggregation compared to control: 100 μM compound, 24 h of incubation
T1 construct: amyloid β peptide 25–35 (Aβ25–35); purchased Sigma-Aldrich
Procedure: The Aβ25–35 self-aggregation assay was performed following the method described by Naldi et al.. First, peptide was pretreated with HFIP for 1 day at 22 °C to obtain non-amyloidogenic conformation. […] After incubation, the reaction mixture was supplemented with 0.025 mM thioflavin-T in 50 mM glycine–NaOH buffer (pH 8.5). The fluorescence emission was monitored at 490 nm with excitation at 446 nm using the Gemini XPS (Molecular Devices, Sunnyvale, CA, USA).

hMAO-B = biological target: T2, hMAO-B (Homo sapiens, UniProt P27338); assay: In vitro hMAO inhibitory assay (luminometric), MAO-B; type: biochemical; conditions: 16 µM substrate, 0.5 µg enzyme, 25 °C, 1 h; read-out: hMAO-B IC50 (Mean ± SD)
T2 construct: purchased Sigma-Aldrich
T2 sequence (P27338 1-520): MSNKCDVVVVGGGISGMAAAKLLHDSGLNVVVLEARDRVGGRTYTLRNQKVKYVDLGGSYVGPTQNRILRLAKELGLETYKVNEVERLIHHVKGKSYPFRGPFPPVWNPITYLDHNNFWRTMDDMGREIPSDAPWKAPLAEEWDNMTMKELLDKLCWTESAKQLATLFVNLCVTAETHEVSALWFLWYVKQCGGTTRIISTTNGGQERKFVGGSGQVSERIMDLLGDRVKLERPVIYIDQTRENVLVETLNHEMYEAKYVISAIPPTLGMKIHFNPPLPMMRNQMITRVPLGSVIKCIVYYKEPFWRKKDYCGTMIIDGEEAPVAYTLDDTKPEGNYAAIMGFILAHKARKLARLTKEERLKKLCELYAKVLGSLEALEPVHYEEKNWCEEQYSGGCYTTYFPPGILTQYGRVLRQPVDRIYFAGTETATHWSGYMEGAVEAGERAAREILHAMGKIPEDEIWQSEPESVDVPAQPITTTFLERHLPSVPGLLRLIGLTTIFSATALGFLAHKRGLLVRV
Procedure: (§1) The inhibitory potential of the P. lobata-derived phytochemicals against MAO was evaluated through the luminometric method. Various doses of phytoestrogens in 0.1 M HEPES buffer (pH 7.5) with 5% 1,2,3-propanetriol for MAO-A and 5% 1,2,3-propanetriol and 10% dimethyl sulfoxide for MAO-B were mixed with the substrate (160 µM for MAO-A and 16 µM for MAO-B) and 0.5 µg of the enzyme and incubated at 25 °C. After 1 h incubation, reconstituted luciferin-detection reagent was added to the reaction mixture and incubated at 25 °C for 20 min. After that, luminescent signals were monitored using a microplate reader (Biotek, Winooski, VT, USA).
(§2) In addition, since factors such as organic solvents, metal ions (such as Cu^2+, Cd^2+, and Al^3+), pH, and temperature affect MAO activity, the assay was conducted in a well-controlled laboratory environment. The optimal conditions for the enzymatic reaction, including reaction time, temperature, pH, and the concentrations of the enzyme and substrate, were established based on the previous study. All the test samples were diluted in a reaction buffer containing 10% or less DMSO, and the solvent-control group was tested together for each assay to minimize false-positive/false-negative effects.

hMAO-A [1] = biological target: T3, hMAO-A (Homo sapiens, UniProt P21397); assay: In vitro hMAO inhibitory assay (luminometric), MAO-A; type: biochemical
T3 construct: purchased Sigma-Aldrich
T3 sequence (P21397 1-527): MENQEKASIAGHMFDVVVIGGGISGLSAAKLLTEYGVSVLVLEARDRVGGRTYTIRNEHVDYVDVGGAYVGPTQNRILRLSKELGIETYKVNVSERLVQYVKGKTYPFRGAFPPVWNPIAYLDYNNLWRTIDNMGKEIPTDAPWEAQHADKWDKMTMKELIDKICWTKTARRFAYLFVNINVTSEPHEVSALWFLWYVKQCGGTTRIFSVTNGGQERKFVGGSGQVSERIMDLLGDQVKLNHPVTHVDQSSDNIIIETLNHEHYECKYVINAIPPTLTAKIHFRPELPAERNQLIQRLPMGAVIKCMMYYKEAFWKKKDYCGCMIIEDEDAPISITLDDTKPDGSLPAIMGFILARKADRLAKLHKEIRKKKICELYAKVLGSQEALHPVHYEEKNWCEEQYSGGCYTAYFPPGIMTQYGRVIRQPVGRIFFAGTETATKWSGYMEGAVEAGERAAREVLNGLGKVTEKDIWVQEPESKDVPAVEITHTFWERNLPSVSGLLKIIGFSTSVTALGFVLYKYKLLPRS
Procedure: as §1, §2

hMAO-A [2] = biological target: T3, hMAO-A; assay: Kinetic assay for hMAO-A (Lineweaver-Burk and secondary plots); type: biochemical
Procedure: The experimental method was the same as that used for the hMAO inhibitory assay; 0.5 µg of enzyme, 40–160 µM substrate and 0, 2.5, 10, and 20 µM coumestrol were used. A Lineweaver–Burk plot (LB plot) was generated using SigmaPlot 12.0 based on the results of the kinetic assay and secondary plots of the LB plot (LB-2nd plot) were generated using the exploratory EK macro module (Table S1).
The equation for the LB plot is as follows:(1) […]

mouse astrocytes = test system: mouse astrocytes; design: method as in PMID 21708076; conditions: nanomolar concentration; Aβ-induced cytotoxicity and inflammatory cytokine levels; cited from earlier work
β-secretase = test system: β-secretase; design: method as in PMID 29597336; conditions: cited from earlier work
MAO-B = conditions: cited from earlier work
MAO-A = conditions: cited from earlier work
[3] = Screening active compound, 100 μM
[4] = 160 µM substrate, 0.5 µg enzyme, 25 °C, 1 h, read-out: hMAO-A IC50 (Mean ± SD)
[5] = substrate 40 μM, coumestrol 2.5 μM
[6] = substrate 40 μM, coumestrol 10 μM
[7] = substrate 40 μM, coumestrol 20 μM
[8] = substrate 80 μM, coumestrol 2.5 μM
[9] = substrate 80 μM, coumestrol 10 μM
[10] = substrate 80 μM, coumestrol 20 μM
[11] = substrate 160 μM, coumestrol 2.5 μM
[12] = substrate 160 μM, coumestrol 10 μM
[13] = substrate 160 μM, coumestrol 20 μM

## O=c1c(-c2ccc(O)cc2)coc2cc(O)cc(O)c12 [Genistein]
Aβ25–35
  decrease of Aβ25–35 self-aggregation compared to control: 34.90%
Aβ25–35; [3]
  Fluorescence (Emission = 490 nm / Excitation = 446 nm), replicates 1-3: 656.961 and 678.75 and 636.556

## O=c1c(-c2ccc(O)cc2)coc2cc(O)ccc12 [Daidzein]
Aβ25–35
  decrease of Aβ25–35 self-aggregation compared to control: 35.54%
Aβ25–35; [3]
  Fluorescence (Emission = 490 nm / Excitation = 446 nm), replicates 1-3: 752.714 and 744.841 and 739.542

## CC1OC(OCC2OC(Oc3c(-c4ccc(O)cc4)oc4cc(O)cc(O)c4c3=O)C(O)C(O)C2O)C(O)C(O)C1O (centres unmarked) [Nicotiflorine]
hMAO-B
  IC50: > 400 µM
hMAO-A [1]; [4]
  IC50: > 400 µM

## O=c1oc2cc(O)ccc2c2oc3cc(O)ccc3c12 [Coumestrol]
hMAO-B
  IC50: 77.8 ± 2.1 µM
hMAO-A [2]; 0.5 µg MAO-A, 40–160 µM substrate, 25 °C
  Inhibition Mode: Competitive
hMAO-A [2]; 0.5 µg MAO-A, 40–160 µM substrate, 25 °C, listed as coumestrol
  Inhibition Mode: competitive inhibitor
hMAO-A [2]; 0.5 µg MAO-A, 40–160 µM substrate, 25 °C, secondary plots, read-out: Inhibition Constant (Ki)
  Ki: 1.32 µM
hMAO-A [2]; [5]
  1/V Mean: 0.000734 1/(RLU/60min)
  RLU Mean: 81783.67 RLU
hMAO-A [2]; [6]
  1/V Mean: 0.001642 1/(RLU/60min)
  RLU Mean: 36716 RLU
hMAO-A [2]; [7]
  1/V Mean: 0.002945 1/(RLU/60min)
  RLU Mean: 20374 RLU
hMAO-A [2]; [8]
  1/V Mean: 0.000475 1/(RLU/60min)
  RLU Mean: 126374 RLU
hMAO-A [2]; [9]
  1/V Mean: 0.000938 1/(RLU/60min)
  RLU Mean: 64010.67 RLU
hMAO-A [2]; [10]
  1/V Mean: 0.001597 1/(RLU/60min)
  RLU Mean: 37649 RLU
hMAO-A [2]; [11]
  1/V Mean: 0.000261 1/(RLU/60min)
  RLU Mean: 229959.3 RLU
hMAO-A [2]; [12]
  1/V Mean: 0.000495 1/(RLU/60min)
  RLU Mean: 121308.7 RLU
hMAO-A [2]; [13]
  1/V Mean: 0.000797 1/(RLU/60min)
  RLU Mean: 75572 RLU
Aβ25–35
  decrease of Aβ25–35 self-aggregation compared to control: 76.14%
Aβ25–35; Dose-dependent curves, 5 μM
  Fluorescence (Emission = 490 nm / Excitation = 446 nm), replicates 1-3: 874.9012 and 872.4322 and 899.9266
Aβ25–35; Dose-dependent curves, 10 μM
  Fluorescence (Emission = 490 nm / Excitation = 446 nm), replicates 1-3: 820.955 and 835.446 and 846.767
Aβ25–35; Dose-dependent curves, 20 μM
  Fluorescence (Emission = 490 nm / Excitation = 446 nm), replicates 1-3: 725.8814 and 709.3678 and 704.8239
Aβ25–35; Dose-dependent curves, 50 μM
  Fluorescence (Emission = 490 nm / Excitation = 446 nm), replicates 1-3: 578.864 and 549.001 and 576.214
Aβ25–35; Dose-dependent curves, 100 μM
  Fluorescence (Emission = 490 nm / Excitation = 446 nm), replicates 1-3: 484.285 and 460.697 and 486.519
Aβ25–35; [3]
  Fluorescence (Emission = 490 nm / Excitation = 446 nm), replicates 1-3: 420.995 and 408.908 and 418.89
Aβ25–35; thioflavin-T assay, read-out: IC50 for inhibition of Aβ25–35 self-aggregation
  IC50: 37.4 ± 1.7 µM
hMAO-A [1]; [4]
  IC50: 1.99 ± 0.68 µM
Mouse astrocytes
  neuroprotective effects in mouse astrocytes: neuroprotective effects
β-secretase
  in vitro inhibitory effect against β-secretase: in vitro inhibitory effect

## CC1OC(OCC2OC(Oc3c(-c4ccc(O)c(O)c4)oc4cc(O)cc(O)c4c3=O)C(O)C(O)C2O)C(O)C(O)C1O (centres unmarked) [Quercetin-3-O-robinobioside]
hMAO-B
  IC50: > 400 µM
hMAO-A [1]
  IC50: > 400 µM

## CC1OC(OCC2OC(Oc3c(-c4ccc(O)cc4)oc4cc(OC5OC(C)C(O)C(O)C5O)cc(O)c4c3=O)C(O)C(O)C2O)C(O)C(O)C1O (centres unmarked) [Robinin, kaempferol 3-O-robinoside-7-O-rhamnoside]
hMAO-B
  IC50: > 400 µM
hMAO-A [1]; [4]
  IC50: > 400 µM

## O=c1c(-c2ccc(O)cc2)coc2cc(O[C@@H]3O[C@H](CO)[C@@H](O)[C@H](O)[C@H]3O)ccc12 [Daidzin]
hMAO-B
  IC50: > 400 µM
hMAO-A [1]
  IC50: > 400 µM

## COc1c(CC=C(C)C)c(O)cc2oc(=O)c3c4ccc(O)cc4oc3c12 [glycyrol]
MAO-B; read-out: IC50 against MAO-B
  IC50: 29.5 µM
MAO-A; read-out: activity against MAO-A (no activity below)
  IC50: > 40 µM

## O=c1c(-c2ccc(O)cc2)coc2cc(O[C@@H]3O[C@H](CO)[C@@H](O)[C@H](O)[C@H]3O)cc(O)c12 [Genistin]
hMAO-B
  IC50: > 400 µM
hMAO-A [1]; [4]
  IC50: > 400 µM

## CC1OC(OCC2OC(Oc3c(-c4ccc(O)cc4)oc4cc(O)cc(O)c4c3=O)C(O)C(O)C2O)C(O)C(O)C1O (centres unmarked) [Kaempferol-3-O-robinobioside]
hMAO-B
  IC50: > 400 µM
hMAO-A [1]; [4]
  IC50: > 400 µM

## COc1cc(/C=C/C(=O)CC(=O)/C=C/c2ccc(O)c(OC)c2)ccc1O [Curcumin, curcumin, reference compound]
Aβ25–35; Dose-dependent curves, 5 μM
  Fluorescence (Emission = 490 nm / Excitation = 446 nm), replicates 1-3: 714.733 and 699.957 and 732.987
Aβ25–35; Dose-dependent curves, 10 μM
  Fluorescence (Emission = 490 nm / Excitation = 446 nm), replicates 1-3: 659.3354 and 647.8281 and 645.7345
Aβ25–35; Dose-dependent curves, 20 μM
  Fluorescence (Emission = 490 nm / Excitation = 446 nm), replicates 1-3: 508.323 and 494.704 and 529.05
Aβ25–35; Screening active compound, 20 μM
  Fluorescence (Emission = 490 nm / Excitation = 446 nm), replicates 1-3: 446.557 and 456.907 and 436.435

## CC(C)=CCc1cc2c(cc1O)oc(=O)c1c3ccc(O)cc3oc21 [psoralidin]
MAO-B
  inhibitory effect against MAO-B: did not show a significant inhibitory effect
MAO-A
  inhibitory effect against MAO-A: did not show a significant inhibitory effect

## C[C@@H]1O[C@@H](OC[C@H]2O[C@@H](Oc3c(-c4ccc(O)c(O)c4)oc4cc(O)cc(O)c4c3=O)[C@H](O)[C@@H](O)[C@@H]2O)[C@H](O)[C@H](O)[C@H]1O [Rutin]
hMAO-B
  IC50: > 400 µM
Aβ25–35
  decrease of Aβ25–35 self-aggregation compared to control: 49.31%
Aβ25–35; [3]
  Fluorescence (Emission = 490 nm / Excitation = 446 nm), replicates 1-3: 556.703 and 574.097 and 523.388
hMAO-A [1]
  IC50: 387 ± 4.63 µM
  inhibitory activity against MAO-A: weak MAO-A inhibitory activity

— PMC9502896 (Nutrients, 2022)
